Measured values from publication PMC11033320, “Activation of p53 signaling and regression of breast and prostate carcinoma cells by spirooxindole-benzimidazole small molecules” (Frontiers in Pharmacology, 2024).

How the values were obtained:
NCI-H460 = assay: NCI anticancer screening, Non-Small Cell Lung Cancer NCI-H460; format: cell-based; conditions: Homo sapiens; NCI-H460, 10 μM; read-out: % Growth Inhibition (GI %)
Excerpt: (§1) The compound has been processed according to standard method NCI-60 Human Tumor Cell Lines Screen for organic compound at development therapeutic program (DTP). Requests for access to this national resource can be submitted online at: […]

SK-OV-3 = assay: NCI anticancer screening, Ovarian Cancer SK-OV-3; format: cell-based; conditions: Homo sapiens; SK-OV-3, 10 μM; read-out: % Growth Inhibition (GI %)
Excerpt: as §1

UACC-257 = assay: NCI anticancer screening, Melanoma UACC-257; format: cell-based; conditions: Homo sapiens; UACC-257, 10 μM; read-out: % Growth Inhibition (GI %)
Excerpt: as §1

SR = assay: NCI anticancer screening, Leukemia SR; format: cell-based; conditions: Homo sapiens, read-out: % Growth Inhibition (GI %)
Excerpt: as §1

T-47D = assay: NCI anticancer screening, Breast Cancer T-47D; format: cell-based; conditions: Homo sapiens, T47D, read-out: % Growth Inhibition (GI %)
Excerpt: as §1

CAKI-1 = assay: NCI anticancer screening, Renal Cancer CAKI-1; format: cell-based; conditions: Homo sapiens; CAKI-1, 10 μM; read-out: % Growth Inhibition (GI %)
Excerpt: as §1

EKVX = assay: NCI anticancer screening, Non-Small Cell Lung Cancer EKVX; format: cell-based; conditions: Homo sapiens, read-out: % Growth Inhibition (GI %)
Excerpt: as §1

NCI-H522 = assay: NCI anticancer screening, Non-Small Cell Lung Cancer NCI-H522; format: cell-based; conditions: Homo sapiens; NCI-H522, 10 μM; read-out: % Growth Inhibition (GI %)
Excerpt: as §1

cyclin D = assay: Real time PCR cyclin D gene expression in MDA-MB 231 cells; conditions: treated MDA-MB 231 cells compared to untreated cells
MOLT-4 = assay: NCI anticancer screening, Leukemia MOLT-4; format: cell-based; conditions: Homo sapiens; MOLT-4, 10 μM; read-out: % Growth Inhibition (GI %)
Excerpt: as §1

[1] = MTT cytotoxicity to normal human lung fibroblast Wi-38 cell line; format: cell-based; conditions: Wi-38 normal lung fibroblast cells, mean ± SEM, read-out: percentage of Wi-38 viability
Description: Normal human lung fibroblast Wi-38 cell line was used to detect cytotoxicity of the studied compounds (Table S8). Wi-38 cell line was cultured in DMEM medium-contained 10% fetal bovine serum (FBS), seeded as 5x10^3 cells per well in 96-well cell culture plate and incubated at 37 °C in 5% CO2 incubator. After 24 h for cell attachment, serial concentrations of the synthetic compounds were incubated with Wi-38 cells for 72 h. Cell viability was assayed by MTT method (Mosmann, 1983). Twenty microliters of 5 mg/ml MTT (Sigma, USA) was added to each well and the plate was incubated at 37 °C for 3 h. Then MTT solution was removed, 100 µl DMSO was added and the absorbance of each well was measured with a microplate reader (BMG LabTech, Germany) at 570 nm.

COLO 205 = assay: NCI anticancer screening, Colon Cancer COLO 205; format: cell-based; conditions: Homo sapiens; COLO 205, 10 μM; read-out: % Growth Inhibition (GI %)
Excerpt: as §1

UACC-62 = assay: NCI anticancer screening, Melanoma UACC-62; format: cell-based; conditions: Homo sapiens; UACC-62, 10 μM; read-out: % Growth Inhibition (GI %)
Excerpt: as §1

SNB-19 = assay: NCI anticancer screening, CNS Cancer SNB-19; format: cell-based; conditions: Homo sapiens; SNB-19, 10 μM; read-out: % Growth Inhibition (GI %)
Excerpt: as §1

SK-MEL-2 = assay: NCI anticancer screening, Melanoma SK-MEL-2; format: cell-based; conditions: Homo sapiens; SK-MEL-2, 10 μM; read-out: % Growth Inhibition (GI %)
Excerpt: as §1

RPMI-8226 = assay: NCI anticancer screening, Leukemia RPMI-8226; format: cell-based; conditions: Homo sapiens; RPMI-8226, 10 μM; read-out: % Growth Inhibition (GI %)
Excerpt: as §1

OVCAR-3 = assay: NCI anticancer screening, Ovarian Cancer OVCAR-3; format: cell-based; conditions: Homo sapiens; OVCAR-3, 10 μM; read-out: % Growth Inhibition (GI %)
Excerpt: as §1

PC-3 cells = assay: MTT assay anticancer activity, PC-3; format: cell-based; conditions: Homo sapiens, PC-3, 5 µM, mean ± SEM, read-out: growth inhibition percentage of PC-3
Excerpt: MTT method was done as described above.

SF-539 = assay: NCI anticancer screening, CNS Cancer SF-539; format: cell-based; conditions: Homo sapiens; SF-539, 10 μM; read-out: % Growth Inhibition (GI %)
Excerpt: as §1

HOP-92 = assay: NCI anticancer screening, Non-Small Cell Lung Cancer HOP-92; format: cell-based; conditions: Homo sapiens; HOP-92, 10 μM; read-out: % Growth Inhibition (GI %)
Excerpt: as §1

TK-10 = assay: NCI anticancer screening, Renal Cancer TK-10; format: cell-based; conditions: Homo sapiens; TK-10, 10 μM; read-out: % Growth Inhibition (GI %)
Excerpt: as §1

NCI-H226 = assay: NCI anticancer screening, Non-Small Cell Lung Cancer NCI-H226; format: cell-based; conditions: Homo sapiens; NCI-H226, 10 μM; read-out: % Growth Inhibition (GI %)
Excerpt: as §1

UO-31 = assay: NCI anticancer screening, Renal Cancer UO-31; format: cell-based; conditions: Homo sapiens; UO-31, 10 μM; read-out: % Growth Inhibition (GI %)
Excerpt: as §1

[2] = biological target: T1, Mdm2 (residues 1–118 T47W) (Homo sapiens, UniProt Q00987, T47W); assay: MDM2 binding by microscale thermophoresis (MST)
T1 construct: Mdm2 (residues 1–118 T47W; 500 nM)
Description: MST is a complementary biophysical assay to assess the binding of a small molecule to its receptor. […] Experiments were performed in 50 mM phosphate buffer at pH 7.4 containing 150 mM NaCl, 5 mM DTT, and 5% DMSO. […] Kd values and uncertainties were calculated using the MO Affinity Analysis software.

T1 sequence (Q00987 1-118 T47W): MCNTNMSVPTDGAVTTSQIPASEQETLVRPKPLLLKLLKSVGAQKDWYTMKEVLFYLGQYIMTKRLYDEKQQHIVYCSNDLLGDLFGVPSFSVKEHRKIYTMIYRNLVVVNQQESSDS

With `Cc1ccc([C@@H]2C3CSCN3[C@]3(C(=O)Nc4ccccc43)[C@H]2C(=O)c2nc3ccccc3[nH]2)cc1` (mixture of isomers) [Compound 6d, (3S,6′R)-6'-(1H-Benzo [d]imidazole-2-carbonyl)-7'-(p-tolyl)-3′,6′,7′,7a′-tetrahydro-1′H-spiro [indoline-3.5′-pyrrolo [1,2-c]thiazol]-2-one] the inhibition at 10 µM (NCI-H460) was 84.5%, the inhibition at 10 µM (SK-OV-3) was 94.2% and the inhibition at 10 µM (UACC-257) was 80.6%. For the same compound, the inhibition at 10 µM (SR) was 102%, the inhibition at 10 µM (T-47D) was 68.8% and the inhibition at 10 µM (CAKI-1) was 54.5%. For the same compound, the inhibition at 10 µM (EKVX) was 71.6%, the inhibition at 10 µM (NCI-H522) was 84.3% and the “expression level of cyclin D” value (cyclin D) was “downregulating”. The inhibition at 10 µM (MOLT-4) was 78.5%, the viability at 72 h, 5 µM [1] was over 81% and the inhibition at 10 µM (COLO 205) was 81.9%. For the same compound, the inhibition at 10 µM (UACC-62) was 78%, the inhibition at 10 µM (SNB-19) was 80.3% and the inhibition at 10 µM (SK-MEL-2) was 93.6%. The inhibition at 10 µM (RPMI-8226) was 80.3%, the inhibition at 10 µM (OVCAR-3) was 89% and the inhibition at 5 µM (PC-3 cells) was over 50%. The inhibition at 10 µM (SF-539) was 81.9%, the inhibition at 10 µM (HOP-92) was 87% and the inhibition at 10 µM (TK-10) was 94.5%. It also gave an inhibition at 10 µM (NCI-H226) of 73.9%, an inhibition at 10 µM (UO-31) of 54.3% and a Kd [2] of 17.4 µM.
